Calls of active or inactive are those of the source.
Key:
[1] = molecular target: T1, Cysteine protease ATG4B (Homo sapiens, UniProt Q9Y4P1); type: functional;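 note: Fluorescence-based dose-response confirmation assay measuring inhibition of ATG4B activity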
T1 sequence (Q9Y4P1 whole entry): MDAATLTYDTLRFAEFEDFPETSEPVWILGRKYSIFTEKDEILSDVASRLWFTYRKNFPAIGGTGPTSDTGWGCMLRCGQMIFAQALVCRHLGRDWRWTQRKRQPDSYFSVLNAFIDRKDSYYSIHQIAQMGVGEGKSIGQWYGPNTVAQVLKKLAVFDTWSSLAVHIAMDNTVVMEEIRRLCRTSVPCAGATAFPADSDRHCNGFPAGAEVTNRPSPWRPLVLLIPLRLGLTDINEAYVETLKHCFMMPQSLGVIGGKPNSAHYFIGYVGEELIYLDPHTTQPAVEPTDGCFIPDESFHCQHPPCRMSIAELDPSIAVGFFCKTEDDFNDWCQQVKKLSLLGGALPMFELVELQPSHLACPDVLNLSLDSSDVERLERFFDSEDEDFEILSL

[2] = molecular target: Phospholipase A2 (Homo sapiens, UniProt P04054); type: functional;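 note: confirmatory dose-response counterscreen on phospholipase A2, testing hits that came from an ultra-high-throughput screen for ATG4B inhibitors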
Phospholipase A2, sequence (P04054 whole entry): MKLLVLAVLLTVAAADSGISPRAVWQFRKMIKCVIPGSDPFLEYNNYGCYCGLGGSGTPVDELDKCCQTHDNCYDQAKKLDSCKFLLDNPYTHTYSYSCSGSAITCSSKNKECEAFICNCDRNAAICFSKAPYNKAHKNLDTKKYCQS

[3] = molecular target: T2, SUMO-activating enzyme (Homo sapiens, UniProt Q9UBT2); assay: blockers of UBC9-mediated SUMO conjugation – biochemical, AlphaScreen, SUMOylation inhibitor project, confirmation (AID 2018); type: functional
T2 sequence (Q9UBE0 whole entry): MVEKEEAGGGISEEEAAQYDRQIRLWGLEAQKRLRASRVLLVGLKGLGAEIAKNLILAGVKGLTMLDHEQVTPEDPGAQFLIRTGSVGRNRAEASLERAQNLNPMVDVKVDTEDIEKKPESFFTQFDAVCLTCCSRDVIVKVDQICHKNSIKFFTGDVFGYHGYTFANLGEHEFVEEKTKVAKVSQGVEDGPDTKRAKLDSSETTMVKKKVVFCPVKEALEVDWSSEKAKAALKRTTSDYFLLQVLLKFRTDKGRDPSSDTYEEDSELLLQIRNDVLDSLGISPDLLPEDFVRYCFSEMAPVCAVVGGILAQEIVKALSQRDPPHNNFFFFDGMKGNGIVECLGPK
T2 sequence (Q9UBT2 whole entry): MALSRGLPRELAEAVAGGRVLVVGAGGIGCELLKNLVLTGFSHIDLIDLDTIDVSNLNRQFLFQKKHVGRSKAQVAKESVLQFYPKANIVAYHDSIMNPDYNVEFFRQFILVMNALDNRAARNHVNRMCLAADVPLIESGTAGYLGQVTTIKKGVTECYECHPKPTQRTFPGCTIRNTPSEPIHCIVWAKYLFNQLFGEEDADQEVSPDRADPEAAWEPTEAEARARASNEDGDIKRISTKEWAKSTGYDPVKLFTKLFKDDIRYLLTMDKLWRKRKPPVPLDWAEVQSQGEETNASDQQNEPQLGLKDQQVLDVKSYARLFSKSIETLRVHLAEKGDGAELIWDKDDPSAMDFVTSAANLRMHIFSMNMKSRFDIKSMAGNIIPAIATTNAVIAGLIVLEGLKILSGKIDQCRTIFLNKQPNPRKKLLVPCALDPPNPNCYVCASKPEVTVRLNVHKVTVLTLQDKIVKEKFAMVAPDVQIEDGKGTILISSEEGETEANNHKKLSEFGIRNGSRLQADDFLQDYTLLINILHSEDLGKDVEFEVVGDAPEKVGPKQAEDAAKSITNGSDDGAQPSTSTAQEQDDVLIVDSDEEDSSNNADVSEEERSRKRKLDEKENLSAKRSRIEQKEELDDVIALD

[4] = molecular target: T2, SUMO-activating enzyme; assay: blockers of SAE1/SAE2–UBC9 SUMO transfer – biochemical, HTRF, uHTS, primary screen (AID 2006); type: protein-complex assay
[5] = molecular target: T3, Caspase-6 (Homo sapiens, UniProt P55212); assay: inhibition of CASP6 peptide cleavage – biochemical, VEID-R110 fluorescence, cherry-pick, dose response (AID 720632)
T3 sequence (P55212 whole entry): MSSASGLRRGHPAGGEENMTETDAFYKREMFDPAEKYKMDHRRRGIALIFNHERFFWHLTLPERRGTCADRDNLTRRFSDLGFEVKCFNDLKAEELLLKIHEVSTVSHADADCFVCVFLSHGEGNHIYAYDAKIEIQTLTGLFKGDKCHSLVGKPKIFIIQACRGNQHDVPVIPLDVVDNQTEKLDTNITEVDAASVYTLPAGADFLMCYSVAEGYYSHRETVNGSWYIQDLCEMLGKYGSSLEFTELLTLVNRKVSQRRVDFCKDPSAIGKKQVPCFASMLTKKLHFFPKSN

[6] = molecular target: DNA (cytosine-5)-methyltransferase 1 (Homo sapiens, UniProt P26358); assay: inhibition of DNA methylation by DNMT1 – biochemical, fluorescent molecular beacon, confirmation (AID 602386); type: functional
DNA (cytosine-5)-methyltransferase 1, sequence (P26358 whole entry): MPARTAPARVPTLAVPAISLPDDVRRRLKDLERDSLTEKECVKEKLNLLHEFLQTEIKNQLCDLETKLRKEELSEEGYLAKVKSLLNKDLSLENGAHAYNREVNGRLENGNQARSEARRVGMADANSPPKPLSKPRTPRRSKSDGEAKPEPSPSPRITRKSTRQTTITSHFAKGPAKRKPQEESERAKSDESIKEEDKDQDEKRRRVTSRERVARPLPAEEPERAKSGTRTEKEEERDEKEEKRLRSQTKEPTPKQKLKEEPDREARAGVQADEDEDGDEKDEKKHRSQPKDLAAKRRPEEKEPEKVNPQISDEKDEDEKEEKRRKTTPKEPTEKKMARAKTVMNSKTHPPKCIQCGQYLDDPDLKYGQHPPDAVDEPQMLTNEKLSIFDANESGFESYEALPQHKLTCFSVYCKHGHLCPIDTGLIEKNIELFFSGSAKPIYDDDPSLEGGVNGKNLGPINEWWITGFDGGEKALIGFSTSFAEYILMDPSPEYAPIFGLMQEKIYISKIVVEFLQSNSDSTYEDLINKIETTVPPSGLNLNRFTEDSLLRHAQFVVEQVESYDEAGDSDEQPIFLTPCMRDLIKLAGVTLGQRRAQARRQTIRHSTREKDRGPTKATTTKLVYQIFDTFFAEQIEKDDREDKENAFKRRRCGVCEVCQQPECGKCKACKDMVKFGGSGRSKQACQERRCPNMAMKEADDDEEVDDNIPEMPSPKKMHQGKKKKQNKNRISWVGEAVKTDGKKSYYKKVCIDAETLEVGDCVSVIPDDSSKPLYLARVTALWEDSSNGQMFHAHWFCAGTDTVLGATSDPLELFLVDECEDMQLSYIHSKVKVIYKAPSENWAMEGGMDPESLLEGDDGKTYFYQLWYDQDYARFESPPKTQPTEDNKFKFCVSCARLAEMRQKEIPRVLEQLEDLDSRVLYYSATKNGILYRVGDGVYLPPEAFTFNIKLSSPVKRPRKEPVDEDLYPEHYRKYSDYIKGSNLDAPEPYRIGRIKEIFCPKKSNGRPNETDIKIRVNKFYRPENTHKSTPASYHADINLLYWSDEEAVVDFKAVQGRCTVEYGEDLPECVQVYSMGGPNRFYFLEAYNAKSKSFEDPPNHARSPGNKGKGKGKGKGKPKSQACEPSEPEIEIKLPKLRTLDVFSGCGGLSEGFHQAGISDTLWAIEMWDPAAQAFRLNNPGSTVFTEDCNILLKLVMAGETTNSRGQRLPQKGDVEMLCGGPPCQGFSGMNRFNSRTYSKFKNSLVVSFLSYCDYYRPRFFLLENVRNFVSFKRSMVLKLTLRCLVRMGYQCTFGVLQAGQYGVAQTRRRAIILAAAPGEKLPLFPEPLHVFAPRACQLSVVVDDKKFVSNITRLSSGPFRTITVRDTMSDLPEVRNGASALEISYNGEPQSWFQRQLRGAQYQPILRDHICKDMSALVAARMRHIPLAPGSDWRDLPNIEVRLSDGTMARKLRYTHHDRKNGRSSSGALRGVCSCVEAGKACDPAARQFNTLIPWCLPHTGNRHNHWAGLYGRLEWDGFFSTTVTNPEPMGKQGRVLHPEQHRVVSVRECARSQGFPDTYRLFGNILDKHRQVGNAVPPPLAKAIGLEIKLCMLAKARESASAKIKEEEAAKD

[7] = molecular target: Induced myeloid leukemia cell differentiation protein Mcl-1 (Homo sapiens, UniProt Q07820); type: functional
Induced myeloid leukemia cell differentiation protein Mcl-1, sequence (Q07820 whole entry): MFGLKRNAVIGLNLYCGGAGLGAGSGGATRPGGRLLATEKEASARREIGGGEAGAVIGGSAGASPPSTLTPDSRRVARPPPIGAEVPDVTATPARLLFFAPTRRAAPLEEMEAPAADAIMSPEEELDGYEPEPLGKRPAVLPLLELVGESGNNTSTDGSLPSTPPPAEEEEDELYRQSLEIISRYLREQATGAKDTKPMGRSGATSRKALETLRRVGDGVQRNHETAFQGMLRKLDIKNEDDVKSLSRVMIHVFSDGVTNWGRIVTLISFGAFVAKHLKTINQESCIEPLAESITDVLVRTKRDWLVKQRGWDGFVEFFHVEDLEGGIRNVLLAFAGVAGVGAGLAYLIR

[8] = molecular target: Beta-2 adrenergic receptor (Homo sapiens, UniProt P07550); assay: ADRB2 activation measured by internalization – cell-based, FAP fluorogen, flow cytometry, cherry pick 1, dose response (AID 588763); type: functional
Beta-2 adrenergic receptor, sequence (P07550 whole entry): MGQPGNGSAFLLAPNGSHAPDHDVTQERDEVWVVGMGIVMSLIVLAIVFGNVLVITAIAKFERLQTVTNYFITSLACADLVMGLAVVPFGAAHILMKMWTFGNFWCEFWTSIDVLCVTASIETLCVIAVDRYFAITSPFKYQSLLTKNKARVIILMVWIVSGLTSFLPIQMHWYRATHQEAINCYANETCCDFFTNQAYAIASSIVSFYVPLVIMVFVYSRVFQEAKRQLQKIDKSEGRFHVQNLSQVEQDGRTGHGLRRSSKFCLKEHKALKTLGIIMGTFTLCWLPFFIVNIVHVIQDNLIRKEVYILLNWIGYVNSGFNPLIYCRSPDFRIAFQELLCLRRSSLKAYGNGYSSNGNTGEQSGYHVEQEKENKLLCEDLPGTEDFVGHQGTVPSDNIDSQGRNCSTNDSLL

[9] = tested on: HeLa; assay: ATP-based viability loss in HeLa cells – cell-based, CellTiter-Glo luminescence, cherry-pick samples, cytotoxicity control for MITF activator project, dose response (AID 540259); type: functional; settings: Homo sapiens
[10] = molecular target: T4, Caspase-3 (Homo sapiens, UniProt P42574); type: functional;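 note: Dose-response selectivity test against caspase-3 for candidate inhibitors of sentrin-specific proteases (SENPs)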
T4 sequence (P42574 whole entry): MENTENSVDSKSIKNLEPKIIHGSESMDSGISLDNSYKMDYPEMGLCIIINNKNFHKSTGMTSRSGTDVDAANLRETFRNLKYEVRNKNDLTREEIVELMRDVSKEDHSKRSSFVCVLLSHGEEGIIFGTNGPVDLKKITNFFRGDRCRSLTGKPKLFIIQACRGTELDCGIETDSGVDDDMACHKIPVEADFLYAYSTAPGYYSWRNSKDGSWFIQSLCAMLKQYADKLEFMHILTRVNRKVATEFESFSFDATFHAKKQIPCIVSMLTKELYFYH

[11] = molecular target: T5, Sentrin-specific protease 7 (Homo sapiens, UniProt Q9BQF6); type: functional;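 note: Luminescence-based dose-response confirmation of ultra-high-throughput screening hits, measuring inhibition of SENP7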
T5 sequence (Q9BQF6 whole entry): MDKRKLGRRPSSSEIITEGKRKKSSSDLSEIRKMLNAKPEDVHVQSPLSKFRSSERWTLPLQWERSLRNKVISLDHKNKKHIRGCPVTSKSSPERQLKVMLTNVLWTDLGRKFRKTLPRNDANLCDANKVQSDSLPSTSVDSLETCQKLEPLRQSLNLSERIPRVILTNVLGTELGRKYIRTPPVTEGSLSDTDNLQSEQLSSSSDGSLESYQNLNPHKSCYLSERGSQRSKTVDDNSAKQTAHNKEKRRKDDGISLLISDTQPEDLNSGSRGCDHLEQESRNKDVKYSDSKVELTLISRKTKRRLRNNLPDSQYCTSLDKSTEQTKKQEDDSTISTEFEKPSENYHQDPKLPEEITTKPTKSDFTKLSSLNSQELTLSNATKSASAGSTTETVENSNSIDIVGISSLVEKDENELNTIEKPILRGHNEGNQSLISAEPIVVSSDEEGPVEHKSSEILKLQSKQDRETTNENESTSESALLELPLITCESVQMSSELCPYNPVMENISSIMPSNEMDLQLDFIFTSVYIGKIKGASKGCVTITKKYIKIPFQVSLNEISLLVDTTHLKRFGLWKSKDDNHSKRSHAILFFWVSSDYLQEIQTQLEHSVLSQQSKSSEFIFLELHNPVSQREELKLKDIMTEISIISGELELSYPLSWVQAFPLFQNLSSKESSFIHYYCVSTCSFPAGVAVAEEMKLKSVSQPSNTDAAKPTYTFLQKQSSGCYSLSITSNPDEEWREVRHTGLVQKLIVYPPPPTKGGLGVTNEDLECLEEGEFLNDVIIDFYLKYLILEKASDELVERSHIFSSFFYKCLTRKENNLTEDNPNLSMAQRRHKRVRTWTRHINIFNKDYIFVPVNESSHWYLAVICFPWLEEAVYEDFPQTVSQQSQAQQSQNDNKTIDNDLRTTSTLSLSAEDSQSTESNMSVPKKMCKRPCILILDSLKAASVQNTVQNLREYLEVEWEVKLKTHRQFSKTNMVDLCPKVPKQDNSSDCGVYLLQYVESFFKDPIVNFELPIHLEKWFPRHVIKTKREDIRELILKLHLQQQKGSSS

[12] = NIH-3T3 fibroblast cytotoxicity, dose response, cytotoxicity control, cell-based, fluorescence, Alamar Blue, secondary assay (AID 2327); type: functional;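 note: NIH-3T3 mouse fibroblasts cultured with fluconazole at 8 µg/mL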
[13] = molecular target: FAD-linked sulfhydryl oxidase ALR (Homo sapiens, UniProt P55789); assay: ALR-catalysed DTT oxidation blockers – biochemical, H2O2 detection, luminescence, cherry-pick, dose response (AID 493248)
FAD-linked sulfhydryl oxidase ALR, sequence (P55789 whole entry): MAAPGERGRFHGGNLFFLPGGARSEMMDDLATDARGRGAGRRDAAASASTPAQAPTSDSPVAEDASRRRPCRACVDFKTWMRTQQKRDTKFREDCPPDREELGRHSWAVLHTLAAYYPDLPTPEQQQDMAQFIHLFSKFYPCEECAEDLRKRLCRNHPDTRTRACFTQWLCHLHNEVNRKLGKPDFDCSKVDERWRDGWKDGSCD

[14] = molecular target: T6, Sentrin-specific protease 6 (Homo sapiens, UniProt Q9GZR1); type: functional;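 note: Luminescence-based dose-response confirmatory assay of SENP6 inhibition, following up an ultra-high-throughput screen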
T6 sequence (Q9GZR1 whole entry): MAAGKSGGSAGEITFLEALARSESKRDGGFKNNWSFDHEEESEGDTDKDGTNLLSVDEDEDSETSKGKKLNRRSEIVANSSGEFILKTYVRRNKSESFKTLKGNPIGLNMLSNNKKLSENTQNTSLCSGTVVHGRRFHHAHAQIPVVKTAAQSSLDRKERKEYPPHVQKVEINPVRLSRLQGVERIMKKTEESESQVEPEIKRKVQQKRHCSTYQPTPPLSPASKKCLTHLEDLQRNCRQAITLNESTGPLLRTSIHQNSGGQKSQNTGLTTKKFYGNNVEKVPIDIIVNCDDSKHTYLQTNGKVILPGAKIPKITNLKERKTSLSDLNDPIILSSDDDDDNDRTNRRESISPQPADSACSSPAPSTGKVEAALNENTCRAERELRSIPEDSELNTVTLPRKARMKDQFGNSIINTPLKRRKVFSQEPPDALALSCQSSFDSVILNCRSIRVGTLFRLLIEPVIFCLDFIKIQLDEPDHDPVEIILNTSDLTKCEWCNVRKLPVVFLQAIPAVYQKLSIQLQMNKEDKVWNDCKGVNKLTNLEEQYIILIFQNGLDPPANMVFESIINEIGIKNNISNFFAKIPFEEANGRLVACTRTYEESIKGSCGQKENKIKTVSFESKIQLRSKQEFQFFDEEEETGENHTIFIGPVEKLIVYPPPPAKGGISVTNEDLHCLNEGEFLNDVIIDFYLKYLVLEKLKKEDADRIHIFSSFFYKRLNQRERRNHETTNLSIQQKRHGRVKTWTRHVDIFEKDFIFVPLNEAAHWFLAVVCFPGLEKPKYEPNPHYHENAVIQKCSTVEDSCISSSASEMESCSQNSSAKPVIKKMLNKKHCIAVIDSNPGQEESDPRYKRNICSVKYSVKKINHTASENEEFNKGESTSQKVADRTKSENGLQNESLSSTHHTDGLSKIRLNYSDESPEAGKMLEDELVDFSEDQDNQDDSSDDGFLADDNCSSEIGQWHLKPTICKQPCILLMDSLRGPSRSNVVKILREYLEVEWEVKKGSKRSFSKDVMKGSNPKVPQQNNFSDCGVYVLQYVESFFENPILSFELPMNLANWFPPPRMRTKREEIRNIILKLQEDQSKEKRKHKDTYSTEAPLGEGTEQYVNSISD

[15] = viability of uninfected HEp-2 cells – cell-based, HTS, cytotoxicity control for RSV inhibitor project, dose response (AID 2410); type: functional; settings: human respiratory syncytial virus
[16] = fluconazole-exposed Candida albicans growth modulators – fluorescence, retest, confirmation (AID 2467); type: functional, cell-based
[17] = molecular target: T7, Sentrin-specific protease 8 (Homo sapiens, UniProt Q96LD8); type: functional;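 note: luminescence read-out of SENP8 inhibition, dose-response confirmation following an ultra-high-throughput screen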
T7 sequence (Q96LD8 whole entry): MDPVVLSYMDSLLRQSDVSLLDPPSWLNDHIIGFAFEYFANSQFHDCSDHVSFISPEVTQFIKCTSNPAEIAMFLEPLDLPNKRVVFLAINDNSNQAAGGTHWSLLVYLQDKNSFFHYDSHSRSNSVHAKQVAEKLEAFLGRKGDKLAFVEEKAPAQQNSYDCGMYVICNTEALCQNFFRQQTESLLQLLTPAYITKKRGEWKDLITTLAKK

Cc1nc2c(C(=O)NCc3ccccc3Cl)cnn2c(O)c1Cl
active: IC50 [1] 11 µM | IC50 [2] 12.6 µM

CN(c1ccccc1)c1ccc(/C=C(\CCC(=O)O)c2nc3ccccc3s2)cc1[N+](=O)[O-]
active: IC50 [3] 1.65 µM | IC50 [4] 16.8 µM | IC50 [1] 4.31 µM | IC50 [2] 5.31 µM | AC50 [5] 24.2 µM | IC50 [6] 5.34 µM | IC50 [7] 2.27 µM

Cc1ccc(CS(=O)(=O)c2nc3c(c(N(C)C)n2)CCCC3)cc1
active: EC50 [8] 0.0813 µM

CC(=O)Nc1cccc(-c2csc(Nc3ccc(C)cn3)n2)c1
active: AC50 [9] 40 µM | IC50 [10] 39.7 µM | IC50 [11] 4.13 µM | EC50 [12] 25.8 µM | AC50 [13] 0.169 µM | IC50 [14] 12.7 µM | CC50 [15] > 50 µM | EC50 [16] 4.04 µM | IC50 [17] 17.5 µM

Reference: ChEMBL document CHEMBL1201862, “PubChem BioAssay data set” (2004)
